Measurements as given in patent US4720503A, “N-substituted fused-heterocyclic carboxamide derivatives as dual cyclooxygenase and lipoxygenase inhibitors” (Merck & Co., Inc., priority 1985, dated 1988).
Blank lines part the entries; values can stand above or below the molecule they belong to.

Key:
5-lipoxygenase = target: T1, 5-lipoxygenase (Homo sapiens, UniProt P09917); assay: 5-lipoxygenase enzyme assay, % inhibition (5-LO); type: biochemical; conditions: for inhibition at 1 µg/mL: Dosage 1.0 μg/ml
T1 sequence (P09917 1-674): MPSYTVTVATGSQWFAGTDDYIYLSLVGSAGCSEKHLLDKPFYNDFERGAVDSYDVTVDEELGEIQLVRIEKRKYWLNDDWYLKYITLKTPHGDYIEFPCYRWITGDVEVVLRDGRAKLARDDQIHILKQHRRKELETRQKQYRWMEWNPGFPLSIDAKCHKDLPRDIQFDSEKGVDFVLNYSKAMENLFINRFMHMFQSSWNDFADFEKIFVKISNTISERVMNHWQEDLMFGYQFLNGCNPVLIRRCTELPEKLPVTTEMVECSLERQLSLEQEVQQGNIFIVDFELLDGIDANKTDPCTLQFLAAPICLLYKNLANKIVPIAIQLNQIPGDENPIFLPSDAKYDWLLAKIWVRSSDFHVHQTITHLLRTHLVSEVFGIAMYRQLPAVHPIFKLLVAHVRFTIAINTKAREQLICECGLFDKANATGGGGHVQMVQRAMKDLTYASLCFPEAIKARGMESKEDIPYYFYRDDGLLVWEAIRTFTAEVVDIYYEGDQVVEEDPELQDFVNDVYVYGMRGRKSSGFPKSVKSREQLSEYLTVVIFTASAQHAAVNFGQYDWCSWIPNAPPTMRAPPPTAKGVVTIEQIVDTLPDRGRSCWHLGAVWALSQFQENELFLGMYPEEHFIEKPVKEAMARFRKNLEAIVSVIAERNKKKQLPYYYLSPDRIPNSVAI

cyclooxygenase = cyclooxygenase (Homo sapiens, UniProt P23219); assay: cyclooxygenase enzyme assay, % inhibition (CO); type: biochemical; conditions: for inhibition at 0.5 µg/mL: Dosage 0.5 μg/ml; for inhibition at 1 µg/mL: Dosage 1.0 μg/ml; for inhibition at 5 µg/mL: Dosage 5.0 μg/ml; for inhibition at 0.1 µg/mL: Dosage 0.1 μg/ml
[1] = solubility remark (footnote of table 9); type: physicochemical; conditions: footnote to 5-LO value at 100 μg/ml
gastric acid secretion = conditions: S. Szabo et al., Experimentia, 38, 254, 1982; cited from earlier work
gastric cytoprotection = conditions: S. Szabo et al., Experimentia, 38, 254, 1982; cited from earlier work

Sequence of cyclooxygenase (P23219 24-599): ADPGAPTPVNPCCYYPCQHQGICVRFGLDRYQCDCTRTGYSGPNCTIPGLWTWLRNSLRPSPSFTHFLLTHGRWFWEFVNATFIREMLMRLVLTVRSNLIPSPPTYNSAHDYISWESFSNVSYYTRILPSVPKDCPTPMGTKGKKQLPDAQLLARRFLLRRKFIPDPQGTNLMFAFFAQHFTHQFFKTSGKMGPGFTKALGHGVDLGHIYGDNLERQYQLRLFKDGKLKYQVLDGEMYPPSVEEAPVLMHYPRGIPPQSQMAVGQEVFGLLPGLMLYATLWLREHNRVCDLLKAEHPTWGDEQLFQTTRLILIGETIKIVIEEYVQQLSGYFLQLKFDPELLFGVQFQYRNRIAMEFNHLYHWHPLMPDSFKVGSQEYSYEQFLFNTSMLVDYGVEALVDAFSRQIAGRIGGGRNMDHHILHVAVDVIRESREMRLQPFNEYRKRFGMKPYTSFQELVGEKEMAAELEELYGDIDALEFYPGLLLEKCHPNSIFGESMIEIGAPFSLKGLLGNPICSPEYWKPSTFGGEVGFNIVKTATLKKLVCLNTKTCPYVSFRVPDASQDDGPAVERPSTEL

inhibition at 0.1 µg/mL (5-lipoxygenase; Dosage 0.1 μg/ml): 11%
inhibition at 1 µg/mL (5-lipoxygenase): 14%
inhibition at 10 µg/mL (5-lipoxygenase; Dosage 10.0 μg/ml): 66%
inhibition at 0.1 µg/mL (cyclooxygenase): 49%
inhibition at 1 µg/mL (cyclooxygenase): 97%
inhibition at 5 µg/mL (cyclooxygenase): 98%
inhibition at 10 µg/mL (cyclooxygenase; Dosage 10.0 μg/ml): 100%
SMILES: Cc1ccc(C(=CNC(=O)c2sc3ccsc3c2O)c2ccco2)cc1 [S p-tolyl 2-furyl H, N-[2-(2-Furyl)-2-(4-methylphenyl)ethenyl]-3-hydroxythieno[3,2-b]thiophene-2-carboxamide]

inhibition at 1 µg/mL (5-lipoxygenase): 34%
inhibition at 0.1 µg/mL (cyclooxygenase): 39%
inhibition at 0.48 µg/mL (cyclooxygenase; Dosage 0.48 μg/ml): 99%
inhibition at 1 µg/mL (cyclooxygenase): 100%
inhibition at 2.4 µg/mL (cyclooxygenase; Dosage 2.40 μg/ml): 100%
SMILES: O=C(NC=C(c1ccccc1)c1ccccc1)c1sc2ccsc2c1O [S phenyl phenyl H, N-(2,2-diphenylethenyl)-3-hydroxythieno[3,2-b]thiophene-2-carboxamide]

Second part, the molecule before the results:

SMILES: COC(=O)c1cc2oc(C(=O)NC=C(c3ccccc3)c3ccccc3)c(O)c2s1 [O phenyl phenyl CO2 CH3, N-(2,2-Diphenylethenyl)-5-carbomethoxy-3-hydroxythieno[3,2-b]furan-2-carboxamide]
inhibition at 0.5 µg/mL (5-lipoxygenase; Dosage 0.5 μg/ml): 30%
inhibition at 5 µg/mL (5-lipoxygenase; Dosage 5.0 μg/ml): 34%
inhibition at 0.5 µg/mL (cyclooxygenase): 95%
inhibition at 1 µg/mL (cyclooxygenase): 98%
inhibition at 2 µg/mL (cyclooxygenase; Dosage 2.0 μg/ml): 98%
inhibition at 5 µg/mL (cyclooxygenase): 100%

SMILES: COC(=O)c1cc2sc(C(=O)NC=C(c3ccccc3)c3ccccc3)c(O)c2s1 [S phenyl phenyl CO2 CH3, 5-Carbomethoxy-N-(2,2-diphenylethenyl)-3-hydroxythieno[3,2-b]thiophene-2-carboxamide]
solubility (footnote) [1]: very insoluble
inhibition at 100 µg/mL (5-lipoxygenase): 12%
inhibition at 0.01 µg/mL (cyclooxygenase; Dosage 0.01 μg/ml): 9%
inhibition at 0.05 µg/mL (cyclooxygenase; Dosage 0.05 μg/ml): 33%
inhibition at 0.5 µg/mL (cyclooxygenase): 80%
inhibition at 5 µg/mL (cyclooxygenase): 100%
inhibition at 100 µg/mL (cyclooxygenase; Dosage 100 μg/ml): 100%

SMILES: CCCCC[C@H](O)/C=C/[C@@H]1[C@@H](C/C=C\CCCC(=O)O)[C@H](O)C[C@H]1O [protaglandin F2B]
inhibition of gastric acid secretion (gastric acid secretion): does not inhibit gastric acid secretion
gastric cytoprotection (gastric cytoprotection): does induce gastric cytoprotection
